# Experimental data published in article PMC5593877, “Identification of endoxylanase XynE from Clostridium thermocellum as the first xylanase of glycoside hydrolase family GH141” (Scientific Reports, 2017).
# Target: T1, Xyn141E (Acetivibrio thermocellus, UniProt A3DHG8)
# T1 construct: gene Cthe_2195
# Assay: HPAEC-PAD of hydrolysis products
# Assay type: biochemical
# Conditions: 200 µg/mL substrate, 100 µg/mL enzyme, 10 mM MOPS pH 6.5, 50 mM NaCl, 10 mM CaCl2, 60 °C, 16 h
# T1 sequence (A3DHG8 entry or part of it): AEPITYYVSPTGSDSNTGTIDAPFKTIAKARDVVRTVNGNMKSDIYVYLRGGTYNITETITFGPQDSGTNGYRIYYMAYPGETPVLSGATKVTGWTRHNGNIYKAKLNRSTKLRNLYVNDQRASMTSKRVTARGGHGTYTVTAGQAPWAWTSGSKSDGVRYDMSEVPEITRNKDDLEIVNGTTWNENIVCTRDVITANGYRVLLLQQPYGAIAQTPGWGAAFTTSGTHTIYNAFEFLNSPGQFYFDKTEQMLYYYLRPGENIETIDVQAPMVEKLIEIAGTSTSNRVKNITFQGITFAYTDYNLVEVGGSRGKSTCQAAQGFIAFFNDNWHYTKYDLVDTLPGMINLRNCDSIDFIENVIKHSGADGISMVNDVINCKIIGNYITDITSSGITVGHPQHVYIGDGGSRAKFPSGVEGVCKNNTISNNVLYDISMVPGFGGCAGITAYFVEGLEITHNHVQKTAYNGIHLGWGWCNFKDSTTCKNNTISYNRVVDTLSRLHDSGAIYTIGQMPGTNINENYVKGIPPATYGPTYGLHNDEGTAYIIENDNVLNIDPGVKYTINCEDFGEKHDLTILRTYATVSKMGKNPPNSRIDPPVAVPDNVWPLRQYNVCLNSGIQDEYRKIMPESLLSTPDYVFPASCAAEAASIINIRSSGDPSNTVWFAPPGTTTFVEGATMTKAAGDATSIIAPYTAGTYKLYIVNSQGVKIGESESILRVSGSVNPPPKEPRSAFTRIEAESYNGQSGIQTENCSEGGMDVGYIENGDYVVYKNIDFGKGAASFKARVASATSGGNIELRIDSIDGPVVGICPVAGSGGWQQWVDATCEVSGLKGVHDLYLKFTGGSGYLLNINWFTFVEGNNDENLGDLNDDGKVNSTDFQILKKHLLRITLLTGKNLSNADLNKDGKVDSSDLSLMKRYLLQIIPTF
row,Structure (SMILES),HPAEC-PAD of hydrolysis products
1,"OC1OC[C@@H](O[C@@H]2OC[C@@H](O[C@@H]3OC[C@@H](O[C@@H]4OC[C@@H](O)[C@H](O)[C@H]4O)[C@H](O)[C@H]3O)[C@H](O)[C@H]2O)[C@H](O)[C@H]1O (some centres unmarked) [X4, xylotetraose]","Xyn141E was able to hydrolyse X5 and X4 to X2 and X3 or X2, respectively."
2,"OC1OC[C@@H](O[C@@H]2OC[C@@H](O[C@@H]3OC[C@@H](O[C@@H]4OC[C@@H](O[C@@H]5OC[C@@H](O)[C@H](O)[C@H]5O)[C@H](O)[C@H]4O)[C@H](O)[C@H]3O)[C@H](O)[C@H]2O)[C@H](O)[C@H]1O (some centres unmarked) [X5, xylopentaose]","Xyn141E was able to hydrolyse X5 and X4 to X2 and X3 or X2, respectively."
